pEC50: −log10 of the molar value. Where two headings read alike, the source gives them in different places.

From patent US11401295B2, “Cyclic dinucleotide compound and uses thereof” (SHANGHAI JEMINCARE PHARMACEUTICALS CO., LTD., priority 2018, dated 2022) come the findings set out here.

For assay [1], the system named is IRF3 pathway in THP1-Dual cells. The assay is described as follows: THP1-Dual reporter gene activity assay (Lucia luciferase, QUANTI-Luc). In kind it is cell-based, human. The text has this:
THP1-Dual™ cells (InvivoGen catalog code: thpd-nfis) used in the test were constructed by stably integrating two inducible reporter genes into the human monocyte cell line THP1. The promoter sequence composition of the secretory embryonic alkaline phosphatase (SEAP) reporter gene consists of an IFN-β primary promoter and five copies of the upstream NF-κB co-expression transcriptional response element and three copies of the c-Rel binding site. The secretory luciferase (Lucia) reporter gene is driven by five interferon (IFN)-stimulated response elements and a basic promoter of ISG54. This made it possible to study simultaneously the two major downstream signaling pathways of STING: the NF κB pathway by detecting SEAP activity: and the IRF pathway by evaluating the activity of Lucia luciferase.
The compounds were diluted with PB buffer (50 mM HEPES, 100 mM KCl, 3 mM MgCl2, 0.1 mM DTT, 85 mM Sucrose, 1 mM ATP, 0.1 mM GTP, 0.20% BSA). 20 μL of the reference or tested compound was added to each well in a 96-well plate, followed by 180 μL of THP1-Dual cells (approximately 100,000 cells/well) suspended in PB buffer. The plate was incubated for 30 minutes at 37° C. under […], and centrifuged at 1000 rpm for 10 minutes. The supernatant was discarded. […] The supernatants were collected and QUANTI-Luc™ was used to quantify the activation of the IRF3 pathway according to the manufacturer's instructions.

Assay [2] relates to IRF3 pathway in RAW-Dual cells (RAW264.7). The assay is described as follows: Raw-Dual reporter gene activity assay (luciferase, QUANTI-Luc). In kind it is cell-based, mouse. How it is done:
The RAW-Dual™ cells used in the test (InvivoGen catalog code: rawd-ismip) were constructed by stably integrating two inducible reporter genes in mouse macrophage cell line RAW264.7. The NF-KB pathway was studied by detecting SEAP activity and the IRF3 pathway was studied by evaluating the activity of luciferase. […] On the second day, the culture medium was discarded, and 200 μL of compound solution prepared in advance with the culture medium was added into each well followed by incubation at room temperature for 30 minutes. After the treatment medium was sucked out, it was washed twice with serum-free culture medium, and 200 μL of culture medium was added into each well, followed by incubation in an incubator at 37° C. for 18-24 hours. On the third day, 20 μL of supernatant was collected per well and QUANTI-Luc™ was used to quantify the activation of IRF3 pathway according to the manufacturer's instructions.
On the technique in general: A reporter such as luciferase makes a cellular process visible.

[3] abbreviates: Mus musculus, RAW264.7, read-out: Raw, EC50.
[4] abbreviates: THP1-Dual cells, IRF3 pathway (Lucia), 30 min treatment, 18 hours incubation, read-out: EC50.

Usually pEC50 stands for the EC50 on a negative log10 scale, so that one unit is a factor of ten. Regarding `BP1(=O)OC[C@H]2O[C@@H](n3cnc4c(N)ncnc43)C(O)[C@H]2OP(=O)(S)OC[C@H]2O[C@@H](n3cnc4c(N)ncnc43)C(F)[C@H]2O1` (single isomer, unassigned) [Compound 1C], the pEC50 in assay [1] is 4.78; in assay [2] (setting [3]) it was 4.38.
Take `BP1(=O)OC[C@H]2O[C@@H](n3cnc4c(N)ncnc43)C(O)[C@H]2OP(=O)(S)OC[C@H]2O[C@@H](n3cnc4c(N)ncnc43)C(F)[C@H]2O1` (single isomer, unassigned) [Compound 1D]: the pEC50 in assay [1] is 5.13; in assay [2] (read-out: Raw, EC50) it was 4.61.
In the case of `BP1(=O)OC[C@H]2O[C@@H](n3cnc4c(N)ncnc43)[C@@H](F)C2OP(B)(=O)OC[C@H]2O[C@@H](n3cc(F)c4c(=O)[nH]cnc43)[C@@H](O)C2O1` (single isomer, unassigned) [Compound 3B], the pEC50 in assay [1] (Homo sapiens, THP1-Dual) was 4.37.
For `BP1(=O)OC[C@H]2O[C@@H](n3cnc4c(N)ncnc43)[C@@H](F)C2OP(B)(=O)OC[C@H]2O[C@@H](n3cc(F)c4c(=O)[nH]cnc43)[C@@H](O)C2O1` (single isomer, unassigned) [Compound 3C], the pEC50 in assay [1] is 4.33; in assay [2] (setting [3]), 5.03.
For the molecule `BP1(=O)OC[C@H]2O[C@@H](n3cnc4c(N)ncnc43)[C@@H](F)C2OP(B)(=O)OC[C@H]2O[C@@H](n3cc(F)c4c(=O)[nH]cnc43)[C@@H](O)C2O1` (single isomer, unassigned) [Compound 3D], the pEC50 in assay [1] is 4.58; in assay [2] (read-out: Raw, EC50), 5.00.
Take `BP1(=O)OC[C@@]23COC([C@H](n4cnc5c(N)ncnc54)O2)[C@H]3OP(B)(=O)OC[C@H]2O[C@@H](n3cnc4c(N)ncnc43)[C@@H](F)C2O1` (single isomer, unassigned) [Compound 5A]: in assay [1], the negative logarithm of the EC50 (pEC50) was 5.21.
As to `BP1(=O)OC[C@@]23COC([C@H](n4cnc5c(N)ncnc54)O2)[C@H]3OP(B)(=O)OC[C@H]2O[C@@H](n3cnc4c(N)ncnc43)[C@@H](F)C2O1` (single isomer, unassigned) [Compound 5B], the pEC50 in assay [1] (Homo sapiens, THP1-Dual) is 4.94; in assay [2] (setting [3]), 4.26.
In the case of `BP1(=O)OC[C@@]23COC([C@H](n4cnc5c(N)ncnc54)O2)[C@H]3OP(B)(=O)OC[C@H]2O[C@@H](n3cnc4c(N)ncnc43)[C@@H](F)C2O1` (single isomer, unassigned) [Compound 5C], the pEC50 in assay [2] (read-out: Raw, EC50) was 4.55.
`BP1(=O)OC[C@@]23COC([C@H](n4cnc5c(N)ncnc54)O2)[C@H]3OP(B)(=O)OC[C@H]2O[C@@H](n3cnc4c(N)ncnc43)[C@@H](F)C2O1` (single isomer, unassigned) [Compound 5D]: the pEC50 is 4.90 in assay [1] and 4.50 in assay [2] (setting [3]).
Turning to `BP1(=O)OC[C@H]2O[C@@H](n3cc(F)c4c(=O)[nH]cnc43)[C@@H](F)C2OP(B)(=O)OC[C@H]2O[C@@H](n3cnc4c(N)ncnc43)[C@@H](F)C2O1` (single isomer, unassigned) [Compound 6A], in assay [1], the pEC50 was 5.87.
Turning to `BP1(=O)OC[C@H]2O[C@@H](n3cc(F)c4c(=O)[nH]cnc43)[C@@H](F)C2OP(B)(=O)OC[C@H]2O[C@@H](n3cnc4c(N)ncnc43)[C@@H](F)C2O1` (single isomer, unassigned) [Compound 6B], the pEC50 in assay [1] is 5.03; in assay [2] (read-out: Raw, EC50), 5.27.
For the molecule `BP1(=O)OC[C@H]2O[C@@H](n3cc(F)c4c(=O)[nH]cnc43)[C@@H](F)C2OP(B)(=O)OC[C@H]2O[C@@H](n3cnc4c(N)ncnc43)[C@@H](F)C2O1` (single isomer, unassigned) [Compound 6C], the pEC50 in assay [1] was 5.64; in assay [2] (read-out: Raw, EC50), 5.96.
For `BP1(=O)OC[C@H]2O[C@@H](n3cc(F)c4c(=O)[nH]cnc43)[C@@H](F)C2OP(B)(=O)OC[C@H]2O[C@@H](n3cnc4c(N)ncnc43)[C@@H](F)C2O1` (single isomer, unassigned) [Compound 6D] the same measures were 4.91 and 5.02.
As to `Nc1nc2c(ncn2[C@@H]2O[C@@H]3COP(=O)(O)O[C@H]4[C@@H](O)[C@H](n5cnc6c(N)ncnc65)O[C@@H]4COP(=O)(O)O[C@@H]2[C@@H]3O)c(=O)[nH]1` [2′,3′-cGAMP, (2′ 3′) cyclic guanosine monophosphate-adenosine monophosphate, reference compound], the pEC50 in assay [1] (setting [4]) was 4.69.
As for `Nc1ncnc2c1ncn2[C@@H]1O[C@@H]2COP(=O)(S)O[C@@H]3[C@H](O)[C@@H](COP(O)(=S)O[C@H]2[C@H]1O)O[C@H]3n1cnc2c(N)ncnc21` (stereo partly drawn) [ADU-S100, reference compound], the pEC50 in assay [1] (setting [4]) is 4.63; in assay [2] (RAW-Dual cells, IRF3 pathway, 30 min treatment, 18-24 hours incubation, read-out: Raw, EC50) it was 4.33.
`BP1(=O)OC[C@H]2O[C@@H](n3cnc4c(N)ncnc43)C(O)[C@H]2OP(=O)(S)OC[C@H]2O[C@@H](n3cnc4c(N)ncnc43)[C@@H](F)C2O1` (stereo partly drawn) [Compound 1A]: the pEC50 in assay [1] (Homo sapiens, THP1-Dual) is 4.13.
Take `BP1(=O)OC[C@H]2O[C@@H](n3cnc4c(N)ncnc43)C(O)[C@H]2OP(=O)(S)OC[C@H]2O[C@@H](n3cnc4c(N)ncnc43)C(F)[C@H]2O1` (stereo partly drawn) [Compound 1B]: the pEC50 was 5.13 in assay [1] (Homo sapiens, THP1-Dual) and 4.80 in assay [2] (setting [3]).
For `BP1(=O)OC[C@H]2O[C@@H](n3cnc4c(N)ncnc43)C(F)[C@H]2OP(B)(=O)OC[C@H]2O[C@@H](n3cnc4c(N)ncnc43)[C@@H](F)C2O1` (stereo partly drawn) [Compound 2A] the same measures were 5.76 and 4.63.
